This note sets out measurements from patent publication EP1081186A1, “Stabilized aqueous acrylamide polymer composition and photographic element containing the composition” (EASTMAN KODAK COMPANY (a New Jersey corporation), priority 1999, dated 2001).

The nature of this series: Inherent viscosity stability of aqueous acrylamide polymer solutions on keeping (capillary viscometer). As to conditions: 0.33 % added to 15 % copolymer solution; at room temperature and at 50°C; compared with isopropanol. It is filed as physicochemical. As to the method:
In the following examples the inherent viscosities of the solutions were measured in a capillary viscometer at a polymer concentration of 0.25 g/dl using aqueous 0.1M sodium sulfate as the solvent. The measurements were carried out at a temperature of 25 degrees C. Inherent viscosity (I.V.) is calculated as: I.V. = ln( t / t0 )/c where t is the polymer solution flow time through the capillary, t0 is the solvent flow time, and c is the polymer concentration. [formula]
Initial Inherent Viscosities ranged from 2.00 to 2.12 dL/g. Percentage Change was defined with the following equation: %Change=(I.V.(t)-I.V.(0))/(I.V.(0))× 100 [formula] where I.V.(0) is the initial inherent viscosity and I.V.(t) is the inherent viscosity of the polymer at time t.
Initial Inherent Viscosities range from 1.90 to 2.00 dL/g. The I.V. change is determined as previously defined.

For the compound `CC(C)(C)c1cccc(O)c1O` [t-butyl catechol], the inherent viscosity stability result was “equal to or better than ten times the concentration of isopropanol”.
